# Laboratory results from patent publication US20090105136A1, “NPY Y2 Agonist for Use as Therapeutic Agent for Disease Accompanied by Diarrhea” (priority 2005, published 2009).
# Test system: mice (C57BL/6)
# Test: Motility of stomach and small intestine (charcoal transit, GI motility)
# Assay type: in vivo
# Details: 0.3 mg/kg or 3 mg/kg intraperitoneal; 30 minutes after oral charcoal; vs vehicle control mice; FIG. 1
# Description: At the same time, control mice (vehicle) to which only a vehicle was administered were prepared, and the same test was carried out using these mice. The motility of stomach and small intestine was measured as follows. That is, charcoal powder was suspended in a 0.5% methyl cellulose solution and the resulting suspension was orally administered to the mice. After 30 minutes, the distance that the charcoal entering into the stomach traveled in the intestinal tract was measured by dissection. At the same time, the total length of the small intestine from the pyloric portion of stomach to the beginning of the cecum was also measured, and the ratio (%) of the distance that the charcoal traveled to the total length of the small intestine was plotted in a graph as a GI (gastrointestinal) motility.
substance,measurement,value
neuropeptide Y [NPY],GI (gastrointestinal) motility: ratio of distance the charcoal traveled to total length of small intestine,lower than that of the control mice
